Patent US20110230424A1, “OPHTHALMIC SOLUTIONS, INCLUDING CONTACT LENS CARE AND EYE DROPS COMPRISING CARNOSINE, PREFERABLY IN COMBINATION WITH DEXPANTHENOL AND/OR HYALURONIC ACID” (priority 2008, published 2011)

Legend:
[1] = phonophoresis or subconjunctival injection, cited from earlier work
[2] = Stability of carnosine in contact lens care solution; assay type: physicochemical; settings: under circumstances; carnosine utilized by bacteria and/or fungi in the solution

| stability of carnosine present in the contact lens care solution [2] | Compound | time within which carnosine accumulates in the aqueous humour after topical administration ([1]; 1% N-acetylcarnosine added to the eye) [min] | effectiveness of carnosine administration in itself to the eye ([1]; quickly metabolised by carnosinase in the eye) |
| --- | --- | --- | --- |
|  | CC(=O)NCCC(=O)N[C@@H](Cc1cnc[nH]1)C(=O)O [N-acetylcarnosine, reference compound] | 15 to 30 |  |
| less stable than expected | NCCC(=O)N[C@@H](Cc1cnc[nH]1)C(=O)O [carnosine, (2S)-2-[(3-Amino-1-oxopropyl)amino]-3-(3H-imidazol-4-yl)propanoic acid] |  | ineffective |
